This note sets out measurements from PubChem BioAssay (NCI).

Each structure is given as a SMILES string.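 1) Cells in 96-well plates. 2) Compound, 48 h, 5 concentrations. 3) Linear interpolation between surrounding doses. 4) Unreached endpoint = highest concentration. TGI marks complete inhibition of growth.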

Test systems include M14 melanoma; SW-620 colon; TK-10 renal; RXF 393 renal; LOX IMVI melanoma; 786-0 renal; HOP-62 NSCLC; UO-31 renal; KM12 colon; UACC-62 melanoma; NCI-H522 lung; HCT-116 colon; HT29 colon; DMS 114 small cell lung; NCI-H226 lung; SNB-19 CNS; DU-145 prostate; MDA-N; OVCAR-3 ovarian; MDA-MB-231 breast.
Holding throughout (assay): inhibition of tumour cell growth, NCI panel, 48 h

Regarding `C=C(Br)C(C)(Br)CCC(Br)C(C)(C)Br` (centres undefined), the TGI with M14 melanoma was 61.3 µM; in the experiment on SW-620 colon, 70.9 µM; in the experiment with TK-10 renal, above 100 µM; in the experiment with RXF 393 renal, above 100 µM; in the experiment on LOX IMVI melanoma, 31 µM; in the experiment on 786-0 renal, 44.5 µM. Further, the TGI was 34.9 µM in the experiment with HOP-62 NSCLC; above 100 µM in the experiment with UO-31 renal; above 100 µM in the experiment with KM12 colon; 45.1 µM with UACC-62 melanoma; 28.3 µM with NCI-H522 lung; 47.7 µM in the experiment on HCT-116 colon. Besides, the values for the TGI in the experiment with HT29 colon, with DMS 114 small cell lung and in the experiment on NCI-H226 lung were above 100 µM, 31.6 µM and above 100 µM, respectively.
As to `CC(=O)OC[C@@]1(C)[C@@H]2[C@@H]3[C@@]4(CO[C@]3(C)C(=O)[C@@]3(O)C[C@H](C)[C@H](OC(C)=O)[C@@H]3[C@H]4OC(C)=O)[C@H](OC(=O)c3ccccc3)C[C@@H]21`, the TGI with M14 melanoma, in the experiment on SW-620 colon, in the experiment on TK-10 renal, in the experiment on RXF 393 renal, with LOX IMVI melanoma and with SNB-19 CNS was above 100 µM throughout. The TGI in the experiment on 786-0 renal, in the experiment on DU-145 prostate, in the experiment with HOP-62 NSCLC, in the experiment with UO-31 renal, in the experiment on KM12 colon and in the experiment on UACC-62 melanoma was above 100 µM throughout. In addition, the TGI in the experiment on NCI-H522 lung, with HCT-116 colon, with HT29 colon, in the experiment with MDA-N, in the experiment with OVCAR-3 ovarian and in the experiment on MDA-MB-231 breast was above 100 µM each time. The compound further showed a TGI with NCI-H226 lung above 100 µM.
